# Source: patent US6583248B1, “Polymerizable cyclodextrin derivatives” (American Dental Association Health Foundation, priority 1997, dated 2003)
# Test: Qualitative solubility tests (polarizing microscope, drop of liquid under cover glass)
# Assay type: physicochemical
# Excerpt: Qualitative solubility tests. A few granules of the βCD or MβCD were placed on a microscope slide, covered with a cover glass, and examined with a polarizing microscope while a drop of liquid was placed to flow under the cover glass. These liquids comprised solvents having a wide range of solubility parameters and a number of monomers that might be of interest in dental or industrial formulations.
compound,measurement,setting,value
"OC[C@H]1O[C@@H]2O[C@H]3[C@H](O)[C@@H](O)[C@@H](O[C@H]4[C@H](O)[C@@H](O)[C@@H](O[C@H]5[C@H](O)[C@@H](O)[C@@H](O[C@H]6[C@H](O)[C@@H](O)[C@@H](O[C@H]7[C@H](O)[C@@H](O)[C@@H](O[C@H]8[C@H](O)[C@@H](O)[C@@H](O[C@H]1[C@H](O)[C@H]2O)O[C@@H]8CO)O[C@@H]7CO)O[C@@H]6CO)O[C@@H]5CO)O[C@@H]4CO)O[C@@H]3CO [βCD, beta-cyclodextrin, reference compound]",subjective solubility in ethylene glycol dimethyl ether,ethylene glycol dimethyl ether,practically insoluble
same,subjective solubility in methanol,,practically insoluble
same,subjective solubility in water,,very slowly and only slightly soluble
fully methacrylated beta-cyclodextrin [MβCD],"subjective solubility in 1,3-glycerol dimethacrylate","1,3-glycerol dimethacrylate",slowly soluble
same,subjective solubility in benzyl methacrylate,benzyl methacrylate,promptly soluble
same,subjective solubility in hydroxyethyl methacrylate,hydroxyethyl methacrylate,promptly soluble
same,subjective solubility in methanol,,very rapidly soluble (miscible)
same,subjective solubility in triethyleneglycol dimethacrylate,triethyleneglycol dimethacrylate,slowly soluble
same,subjective solubility in undiluted BIS-GMA,undiluted BIS-GMA,very slowly soluble
same,subjective solubility in water,,practically insoluble
